Test results published in ChEMBL document CHEMBL1201862, “PubChem BioAssay data set” (2004).
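Each compound was tested at five concentrations against cells in 96-well plates for 48 hours. At the GI50, growth is halved.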 Activity calls are given as the source filed them. Rule as the data show it: active = GI50 up to about 1.1 µM and inactive = higher.

What was measured:
Assay in all cases: DTP human tumour cell line panel, 48 h
RPMI-8226 = tested on: RPMI-8226
NCI-H460 = tested on: NCI-H460
RXF 393 = tested on: RXF 393
COLO 205 = tested on: COLO 205
K562 = tested on: K562
HCT-116 = tested on: HCT-116
SK-OV-3 = tested on: SK-OV-3
HT-29 = tested on: HT-29
OVCAR-3 = tested on: OVCAR-3
M14 = tested on: M14
SK-MEL-5 = tested on: SK-MEL-5
BT-549 = tested on: BT-549
T47D = tested on: T47D
HOP-92 = tested on: HOP-92
SF-295 = tested on: SF-295
KM12 = tested on: KM12
TK-10 = tested on: TK-10
DU-145 = tested on: DU-145
PC-3 = tested on: PC-3
CAKI-1 = tested on: CAKI-1

SMILES	GI50 (RPMI-8226)	GI50 (NCI-H460)	GI50 (RXF 393)	GI50 (COLO 205)	GI50 (K562)	GI50 (HCT-116)	GI50 (SK-OV-3)	GI50 (HT-29)	GI50 (OVCAR-3)	GI50 (M14)	GI50 (SK-MEL-5)	GI50 (BT-549)	GI50 (T47D)	GI50 (HOP-92)	GI50 (SF-295)	GI50 (KM12)	GI50 (TK-10)	GI50 (DU-145)	GI50 (PC-3)	GI50 (CAKI-1)
CCCc1c(Cl)nc(Cl)nc1Cl	0.432 µM (active)	1.2 µM (inactive)	1.09 µM (active)	0.252 µM (active)	0.0723 µM (active)	0.546 µM (active)	> 100 µM (inactive)	0.175 µM (active)	1.01 µM (active)	0.192 µM (active)	0.0594 µM (active)	0.377 µM (active)	3.08 µM (inactive)	2.65 µM (inactive)	4.16 µM (inactive)	3.61 µM (inactive)	3.44 µM (inactive)	5.47 µM (inactive)	2.75 µM (inactive)	
O=[N+]([O-])C(C(Cl)=C(Cl)Cl)=C(n1cncn1)n1cncn1	17.1 µM (inactive)	> 75.5 µM (inactive)	14.6 µM (inactive)	13.7 µM (inactive)		16.1 µM (inactive)	> 100 µM (inactive)	19 µM (inactive)	18.2 µM (inactive)	31.4 µM (inactive)	11.9 µM (inactive)	18.7 µM (inactive)	19 µM (inactive)		> 86.7 µM (inactive)	50.4 µM (inactive)	25.7 µM (inactive)	16.5 µM (inactive)	32.1 µM (inactive)	5.47 µM (inactive)
CCCCCC(=O)CCCCCCCC(O)CC(=O)OCC (configuration not stated)	> 100 µM (inactive)	> 100 µM (inactive)			> 100 µM (inactive)	> 100 µM (inactive)		> 100 µM (inactive)	> 100 µM (inactive)	> 100 µM (inactive)	> 100 µM (inactive)	37.8 µM (inactive)	> 100 µM (inactive)	49.1 µM (inactive)	> 10 µM (inactive)	> 100 µM (inactive)	> 100 µM (inactive)	> 100 µM (inactive)	> 100 µM (inactive)	> 100 µM (inactive)
CC(C)/C=N\N1C(N)=C(C#N)C(C#N)(C#N)C1C(C)C (configuration not stated)	37.8 µM (inactive)		17.2 µM (inactive)	48.1 µM (inactive)	42.1 µM (inactive)	47.9 µM (inactive)	> 100 µM (inactive)	27.5 µM (inactive)	48.2 µM (inactive)	66.1 µM (inactive)	38.3 µM (inactive)	35.2 µM (inactive)	48.9 µM (inactive)		> 100 µM (inactive)	44.6 µM (inactive)	> 100 µM (inactive)	40 µM (inactive)	55.3 µM (inactive)	85.1 µM (inactive)
CC(C)CCCC(C)[C@H]1CCC2[C@@H]3CCC4Cc5nc6c(nc5C[C@]4(C)C3CC[C@@]21C)CC1CC[C@@H]2C(CC[C@@]3(C)C2CC[C@@H]3O)[C@@]1(C)C6 (some centres not stated)	> 100 µM (inactive)	> 100 µM (inactive)	> 100 µM (inactive)	> 100 µM (inactive)	> 100 µM (inactive)	> 100 µM (inactive)	> 100 µM (inactive)	> 100 µM (inactive)	> 100 µM (inactive)	> 100 µM (inactive)	> 100 µM (inactive)	> 100 µM (inactive)	> 100 µM (inactive)	> 100 µM (inactive)	> 100 µM (inactive)	> 100 µM (inactive)	> 100 µM (inactive)	> 100 µM (inactive)	> 100 µM (inactive)	
c1ccc2nn(C3CCCCO3)nc2c1 (configuration not stated)		> 100 µM (inactive)	> 100 µM (inactive)	> 100 µM (inactive)	> 100 µM (inactive)	> 100 µM (inactive)	> 100 µM (inactive)	> 100 µM (inactive)	> 100 µM (inactive)	> 100 µM (inactive)	> 100 µM (inactive)	> 100 µM (inactive)	> 100 µM (inactive)		> 100 µM (inactive)	> 100 µM (inactive)	> 100 µM (inactive)	> 100 µM (inactive)	> 100 µM (inactive)	> 100 µM (inactive)
N#Cc1c2c(c(N3CCOCC3)n3c1nc1ccccc13)CCCC2		23.7 µM (inactive)		20.9 µM (inactive)	25.1 µM (inactive)	13.9 µM (inactive)	22.6 µM (inactive)	16.4 µM (inactive)	18.8 µM (inactive)	21.5 µM (inactive)	18.7 µM (inactive)	40.1 µM (inactive)	19.2 µM (inactive)	17.1 µM (inactive)	17.9 µM (inactive)	> 100 µM (inactive)	23.1 µM (inactive)	19 µM (inactive)	21.9 µM (inactive)	19.1 µM (inactive)
